Experimental data reported in patent US9969695B2, “N-substituted imidazole carboxylic ester chiral compound containing an ether side chain, its preparation and application” (WEST CHINA HOSPITAL, SICHUAN UNIVERSITY, priority 2013, dated 2018).
Like-named read-outs stand apart in the source and are kept apart here.

What was measured:
Male SD rats [1] = test: Onset time, last time, palinesthesia time and adverse effects at 2ED50 via the rat tail vein; assay type: in vivo; details: for Incidence of adverse effect: Muscle tremor / Onset time: 10 rats per group; for Last time: disappearance to recovery of body-righting reflex
Method: (§1) Male SD rats (250˜300 g) were used as an experimental animal, and 50% effective dose (ED50) was determined by the sequential method. Three compounds were dissolved in a solvent of DMSO, and etomidate was used as the commercially-available formulation (B BRAUN, Etomidate-Lipuro®, 20 mg/10 mL). Based on the initial dose of 1 mg/kg, other dosages were adjusted as the ratio of 0.8, and the ED50 values of the three compounds and etomidate were determined. Extinction time ≥30 s for the rat body-righting reflex was the positive marker while no disappearance of the righting reflex was considered invalid. Based on the experimental results, four cross-points were formed, and the ED50 values were calculated. […] Then, the respective 2ED50 values of the three compounds and etomidate were taken in an equivalent dose, which were administered via the rat tail vein. The preliminary effects were evaluated in the four rat groups, which were given the three compounds of Formulas (I), (IV), (V) and etomidate, respectively, with 10 rats in each group. […] The last time of the Formula (I) compound and etomidate was 5-6 min, but the last time of the Formulas (IV) and (V) compounds was 10-20 min. […] DMSO had no pharmacological effects, and no adverse effects were observed. The onset time, the last time, and the adverse effects (types, incidence rates) induced by the three compounds and etomidate are shown in the following table:
(§2) Male SD rats (250˜300 g) were used as an experimental animal, and 50% effective dose (ED50) was determined by the sequential method. Hydrochlorides of the three compounds were dissolved in the solvent of normal saline, and etomidate was used as the commercially-available formulation (B BRAUN, Etomidate-Lipuro®, 20 mg/10 mL). The initial dose was 1 mg/kg, and the ratio of dosage variation was 0.8, which was applied in the determination of ED50 values of Formula (I) hydrochloride, Formula (I) hydrobromide, Formula (I) trifluoroacetate, and etomidate. Extinction time (≥30 s) of the rat body-righting reflex was the positive marker while no disappearance of the reflex was considered invalid. Based on the experimental results, four cross-points were formed, and then ED50 values were calculated. […] Then, the respective 2ED50 values of the three compounds and etomidate were taken in an equivalent dose, which were administered via the rat tail vein. The preliminary effects were evaluated in the four rat groups, which were given the three compounds of Formulas (I) hydrochloride, Formula (I) hydrobromide, Formula (I) trifluoroacetate, and etomidate, respectively, with 10 rats in each group. […] Palinesthesia time was in arrange of 5-10 min. During the test period, no significant difference was found in the types and the incidence rates of adverse effects in each group. DMSO had no pharmacological effects, and no adverse effect was found. The onset time, the last time, and the types and the incidence rates of adverse effects induced by the three salt compounds and etomidate are shown in the following table: […]

11β-hydroxylase = 11β-hydroxylase versus GABAA; cited from earlier work
Male SD rats [2] = test: ED50 by the sequential method, extinction of rat body-righting reflex; assay type: in vivo; details: etomidate as Etomidate-Lipuro, extinction of body-righting reflex ≥30 s; for ED50: Rattus norvegicus, read-out: 50% effective dose (ED50)
Method: as §1, §2

[3] = after one intravenous bolus of etomidate 3 mg/kg, cited from earlier work
[4] = tested on: self-synthesis of adrenocortical hormone; test: Increase degree of cortical hormone (cortisol, corticosterone) in blood serum after ACTH stimulation, ELISA; assay type: in vivo; details: Beagle dogs; for Increase degree of corticosterone / Increase degree of cortisol: 2ED50, dexamethasone baseline, 1 h after ACTH
Method: Male Beagle dogs (10±2 kg) were selected as an experimental animal. After administration, the contents of corticosterone and cortisol in the blood serum of the Beagle dogs were determined by the ELISA kit and the enzyme-labelled instrument. The 20 Beagle dogs were divided into five groups, with four dogs in each group. After respective administration of dexamethasone (0.01 mg/kg), the level of adrenal cortex in the dog body was lowered to the baseline, and those levels of corticosterone and cortisol at this time were used as the base value (baseline). […] After 10 min, ACTH (adrenocortical hormone) was given to stimulate and cause an increased level of cortex in the dog body. One hour after administration of ACTH, both corticosterone and cortisol levels in the blood serum of the Beagle dogs were determined, and the ratio of the peak value to the base value of the cortex levels was calculated. This ratio indicated the increase degree of the cortical hormone. A greater degree indicated a less inhibitory effect of the medicine on the cortical hormone. After administration, compounds of Formulas (I), (IV) and (V), DMSO, and the increase degree of the cortical hormone followed by stimulation of ACTH are shown in the following table:
Male Beagle dogs (10±2 kg) were selected as an experimental animal. After administration, the contents of corticosterone and cortisol in the blood serum of the Beagle dogs were determined by the ELISA kit and the enzyme-labelled instrument. The 20 Beagle dogs were divided into five groups, with four dogs in each group. After respective administration of dexamethasone (0.01 mg/kg), the level of adrenal cortex in the dog body was lowered to the baseline, and the levels of corticosterone and cortisol at this time were used as the baseline. Then, the equivalent doses (2ED50) of the compounds of Formula (I) hydrochloride (3.62 mg/kg), hydrobromide (3.86 mg/kg), trifluoroacetate (4.66 mg/kg), the positive control medicine Etomidate-Lipuro® (0.9 mg/kg), and the equal-volume of solvent DMSO were respectively administrated into the dogs of the five groups. After 10 min, ACTH was given to stimulate and cause the cortex levels increase in the dog body. One hour after administration of ACTH, both the cortical hormone levels were determined, and the ratio of the peak value to the baseline of cortex levels was calculated. This ratio indicated the increase degree of the cortical hormone. A greater degree of increase indicated a less inhibitory effect of the medicine on the cortical hormone. After administrations, the three salts of the Formula (I) compound, DMSO, the increase degree of the cortical hormone followed by stimulation of ACTH are shown in the following table: […]

[5] = Example 9, 2ED50 via tail vein, listed as etomidate
[6] = Example 9, 2ED50 via tail vein, recovery to full recovery of body-righting reflex
[7] = Example 10, ratio of peak value to base value
[8] = Example 11, ratio of peak value to baseline
[9] = Example 9, 2ED50 via tail vein, listed as Formula (I) trifluoroacetate

## CCOC(=O)c1cncn1[C@H](C)c1ccccc1 [Etomidate, reference compound]
Male SD rats [1]; Example 8
  sedative-hypnotic and general anesthetic effects (conclusion in words): good sedative-hypnotic and general anesthetic effects
Male SD rats [1]; Example 8, 2ED50 via tail vein
  Incidence of adverse effect: Muscle tremor: 70%
  Onset time: Immediate
  Last time: 6.1 ± 1.3 min
Male SD rats [1]; Example 8, 2ED50 via tail vein, listed as etomidate
  Onset time: immediate action
Male SD rats [1]; Example 8, 2ED50 via tail vein, recovery to full recovery of body-righting reflex
  Palinesthesia tune: 4.5 ± 1.2 min
Male SD rats [1]; Example 9
  sedative-hypnotic and general anesthetic effects (conclusion in words): good sedative-hypnotic and general anesthetic effects
Male SD rats [1]; Example 9, 2ED50 via tail vein
  Incidence of adverse effect: Muscle tremor: 60%
  Onset time: Immediate
  Last time: 5.9 ± 1.5 min
Male SD rats [1]; [5]
  Onset time: immediate action
  Last time: 4 to 8 min
Male SD rats [1]; [6]
  Palinesthesia time: 5.1 ± 1.3 min
11β-hydroxylase
  ability of binding to 11β-hydroxylase relative to binding to GABAA acceptor: 100 times
Male SD rats [2]; Example 8, compounds in DMSO
  ED50: 1.14 mg/kg
Male SD rats [2]; Example 9, salts in normal saline
  ED50: 1.06 mg/kg
[3]
  time for the plasma medicine concentration maintaining: 8 min
  time of plasma medicine concentration maintaining above 8 ng/mL: up to 8 h
[3]; plasma
  minimal effective concentration for inhibition of cortical hormone synthesis: 8 ng/mL
  minimal effective concentration of anesthetic effect: 110 ng/mL
[4]; [7]
  Increase degree of corticosterone: 2.53 ± 0.65
  Increase degree of cortisol: 2.12 ± 0.56
[4]; Example 10, after stimulation by ACTH
  inhibition on cortical hormone (conclusion in words): significantly inhibit the self-synthesis of adrenocortical hormone
[4]; Example 11
  cortical hormone increase after stimulation by ACTH (conclusion in words): significantly suppress the self-synthesis of adrenocortical hormone
[4]; [8]
  Increase degree of corticosterone: 2.80 ± 0.76
  Increase degree of cortisol: 2.46 ± 0.87

## COCCOC(=O)c1cncn1[C@H](C)c1ccccc1 [Trifluoroacetate of Formula (I) compound]
Male SD rats [1]; Example 9
  sedative-hypnotic and general anesthetic effects (conclusion in words): good sedative-hypnotic and general anesthetic effects
Male SD rats [1]; Example 9, 2ED50 via tail vein
  Incidence of adverse effect: Muscle tremor: (5/10), 50%
  Onset time: Immediate
  Last time: 3.6 ± 1.3 min
Male SD rats [1]; [9]
  Onset time: immediate action
  Last time: 4 to 7 min
Male SD rats [1]; [6]
  Palinesthesia time: 8.2 ± 3.3 min
Male SD rats [2]; Example 9, salts in normal saline, listed as Formula (I) trifluoroacetate
  50% effective dose (ED50): 3.61 mg/kg
[4]; Example 11
  cortical hormone increase after stimulation by ACTH (conclusion in words): lower than that in the blank group of the dogs, but obviously higher than that in the positive medicine etomidate group of the dogs
[4]; [8]
  Increase degree of corticosterone: 13.64 ± 4.22
  Increase degree of cortisol: 26.14 ± 13.89
